Values of other authors, collected in patent EP0604852A1, “2,4-Substituted 5-(N-substituted-sulfamoyl) benzoylguanidines, as antiarrhythmic agents, inhibitors of the proliferation of cells and inhibitors of sodium-hydrogen exchange” (HOECHST AKTIENGESELLSCHAFT, priority 1992, dated 1994).

System: Rattenherzen
Conditions: isolated rat hearts; Eur. Heart J. 9 (Suppl.): 167 (1988)

SMILES	künstlich ausgelöstes Kammerflimmern
CCN(c1nc(N)c(C(=O)NC(=N)N)nc1Cl)C(C)C [Ethylisopropylamilorid]	Noch potenter als Amilorid
N=C(N)NC(=O)c1nc(Cl)c(N)nc1N [Amilorid]	völlig unterdrückt
